# Test results as given in patent US11197906B2, “Methods of lowering blink reflex for the treatment of dry eye disease” (Tufts Medical Center, priority 2016, dated 2021).
# Non-standard residues stand in square brackets, D forms with d. Residues, ends and D or L forms follow the SMILES beside them. Primed or numbered codes have the meaning given here. *: point of attachment. Palmitoyl = CCCCCCCCCCCCCCCC(=O)*; Tic = O=C(O)[C@@H]1Cc2ccccc2CN1; PEG8′ = not defined here
# What was measured:
# CMKLR1 [1] = biological target: T1, CMKLR1 (Homo sapiens, UniProt Q99788); assay: β-Arrestin recruitment, Link-Light CMKLR1 stable cell line; format: cell-based; conditions: 1 hr treatment; for Emax: read-out: Max Efficacy (% 10 μM s-Stable chem9)
# T1 construct: expressed in transfected cells; host or cells: HEK293
# T1 sequence (Q99788 1-373): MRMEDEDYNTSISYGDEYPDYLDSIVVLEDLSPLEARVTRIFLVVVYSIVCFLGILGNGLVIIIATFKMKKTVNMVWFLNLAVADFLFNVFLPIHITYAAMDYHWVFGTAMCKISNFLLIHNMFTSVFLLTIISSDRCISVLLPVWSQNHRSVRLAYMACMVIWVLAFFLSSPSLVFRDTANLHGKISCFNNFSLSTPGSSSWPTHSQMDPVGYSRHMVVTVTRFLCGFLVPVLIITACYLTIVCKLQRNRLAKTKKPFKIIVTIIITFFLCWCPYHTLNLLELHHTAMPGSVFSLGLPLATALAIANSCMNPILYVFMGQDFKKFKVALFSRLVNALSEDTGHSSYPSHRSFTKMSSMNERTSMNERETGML
# CMKLR1 [2] = biological target: T1, CMKLR1; assay: Luciferase reporter assay of CMKLR1 canonical Gαi signal transduction in HEK293 cells transiently expressing recombinant CMKLR1 (+/- wash, +/- albumin); format: cell-based; conditions: for EC50: no wash
# [3] = system: mouse model of corneal inflammation; assay: Thermal cautery mouse model of corneal inflammation; format: in vivo
# Description: FIG. 15 is a set of flow cytometry graphs showing that cell infiltration decreases after topical application of oTTx-010 compared to vehicle. Flow cytometry of pulled corneas was performed on day 3 post cautery. Mice were treated topically three times a day with 10 μL of oTTx-010 or vehicle for 3 days. 10 μL of […] oTTx-010 in 1×PBS solution=4.2 micrograms oTTx-010/dose.
# Thermal cautery is a mouse model of corneal inflammation (see Arch Ophthalmol. 2003 Hamrah et al.).
# DED mice = assay: Dry eye disease (DED) mouse model (scopolamine and desiccating stress); format: in vivo
# From the text: FIG. 11 is a graph showing that corneal fluorescein staining scores were lower in DED mice treated with oTTx-010. NEI scoring system: 0-15.
# FIG. 13 is a set of flow cytometry graphs showing that percentage of activated immune cells (MHCII+) in the draining lymph node of oTTx-010 treated mice decreased compared to vehicle controls.
# FIG. 14 is a set of flow cytometry graphs showing that T regulatory cells increased in the draining lymph node of oTTx-010 treated mice compared to vehicle (showing more tolerance). Flow cytometry of draining lymph nodes gated on CD45+ CD3+ and CD4+ (T cells).
# In the DED mouse model, scopolamine is injected 3 times/day to decrease tear production in mice. Fenestrated cages and 4 fans around the cage working 24 hours/day are used to induce desiccating stress and dry eyes. oTTx-010 is administered to the mice to assess treatment efficacy. Vehicle is administered as control.
# [4] = system: chronic constriction injury (CCI) mouse model; assay: Chronic constriction injury (CCI) mouse model of neuropathic pain; format: in vivo; conditions: for effect on neuropathic pain: CCI mouse model; for time after compound administration over which mechanical hypersensitivity is blocked / efficacy kept: intrathecal administration
# Description: Following intrathecal administration of compound, 1-Stable Chem (C16-stable Chem9) blocked mechanical hypersensitivity for more than 24 hours after compound administration (FIG. 6A). In contrast, Resolvin E1 lost efficacy by 3 hours post injection (FIG. 6B).
# One emerging treatment strategy to treat neuropathic pain is to target modulators of the neuroinflammatory process which contributes to neuropathic pain. We have previously identified a palmitoylated stable analog (“C16-Stable Chem9”) derived from a 9 amino acid fragment of chemerin. […] Extending from these observations, we hypothesized that the pharmacological properties of our peptide may be further optimized by modifying the lipid anchor. We have chemically synthesized a series of Chem 9 analogs with various lipid tails (e.g. cholesterol, oleic acid, linolenic acid). In vitro pharmacological characterization of each peptide was done using HEK293 cells transiently expressing the recombinant CMKLR1. […] Furthermore, selected lipid tails bias binding to either albumin (thus enhancing systemic delivery) or to the cellular membrane (which favors locally restricted function). The lipidated CMKLR1 ligands have promise as modulators of neuropathic pain. In addition, our findings illustrate an approach where serial addition/substitution of lipid anchors can be applied to optimize the pharmacological as well as pharmacokinetic properties of many peptide ligands.
compound,measurement,setting,value
"CC(C)C[C@H](NC(=O)[C@H](Cc1ccccc1)NC(=O)[C@H](N)Cc1ccc(O)cc1)C(=O)N1CCC[C@H]1C(=O)N[C@H](CO)C(=O)N[C@@H](CCC(N)=O)C(=O)N[C@@H](Cc1ccccc1)C(=O)N[C@H](C)C(=O)N1Cc2ccccc2C[C@H]1C(=O)N[C@@H](CO)C(=O)O [none, reference compound] (HELM PEPTIDE1{[dY].F.L.P.[dS].Q.F.[dA].[Tic].S}$$$$V2.0)",EC50,CMKLR1 [1],31.9 nM
same,Emax,CMKLR1 [1],100%
same,EC50,"CMKLR1 [2]; no BSA, read-out: EC50 (no wash0)",35.2 nM
same,EC50,"CMKLR1 [2]; with BSA, read-out: EC50 (BSA) (no wash)",5.1 nM
CCCCCCCC/C=C\CCCCCCCC(=O)NCCOCCOCCOCCOCCOCCOCCOCCOCCC(=O)N[C@@H](CCCCN)C(=O)NCC(=O)NCC(=O)N[C@H](Cc1ccc(O)cc1)C(=O)N[C@@H](Cc1ccccc1)C(=O)N[C@@H](CC(C)C)C(=O)N1CCC[C@H]1C(=O)N[C@H](CO)C(=O)N[C@@H](CCC(N)=O)C(=O)N[C@@H](Cc1ccccc1)C(=O)N[C@H](C)C(=O)N1Cc2ccccc2C[C@H]1C(=O)N[C@@H](CO)C(=O)O [C18:1] (HELM PEPTIDE1{[CCCCCCCC/C=C\CCCCCCCC(=O)[*:2]].[O=C(CCOCCOCCOCCOCCOCCOCCOCCOCCN[*:1])[*:2]].K.G.G.[dY].F.L.P.[dS].Q.F.[dA].[Tic].S}$$$$V2.0; N-terminus and C-terminus assumed),Emax,CMKLR1 [1],160%
CCCCCC/C=C\CCCCCCCC(=O)NCCOCCOCCOCCOCCOCCOCCOCCOCCC(=O)N[C@@H](CCCCN)C(=O)NCC(=O)NCC(=O)N[C@H](Cc1ccc(O)cc1)C(=O)N[C@@H](Cc1ccccc1)C(=O)N[C@@H](CC(C)C)C(=O)N1CCC[C@H]1C(=O)N[C@H](CO)C(=O)N[C@@H](CCC(N)=O)C(=O)N[C@@H](Cc1ccccc1)C(=O)N[C@H](C)C(=O)N1Cc2ccccc2C[C@H]1C(=O)N[C@@H](CO)C(=O)O [C16:1] (HELM PEPTIDE1{[CCCCCC/C=C\CCCCCCCC(=O)[*:2]].[O=C(CCOCCOCCOCCOCCOCCOCCOCCOCCN[*:1])[*:2]].K.G.G.[dY].F.L.P.[dS].Q.F.[dA].[Tic].S}$$$$V2.0; N-terminus and C-terminus assumed),Emax,CMKLR1 [1],154%
CCCC/C=C\CCCCCCCC(=O)NCCOCCOCCOCCOCCOCCOCCOCCOCCC(=O)N[C@@H](CCCCN)C(=O)NCC(=O)NCC(=O)N[C@H](Cc1ccc(O)cc1)C(=O)N[C@@H](Cc1ccccc1)C(=O)N[C@@H](CC(C)C)C(=O)N1CCC[C@H]1C(=O)N[C@H](CO)C(=O)N[C@@H](CCC(N)=O)C(=O)N[C@@H](Cc1ccccc1)C(=O)N[C@H](C)C(=O)N1Cc2ccccc2C[C@H]1C(=O)N[C@@H](CO)C(=O)O [C14:1] (HELM PEPTIDE1{[CCCC/C=C\CCCCCCCC(=O)[*:2]].[O=C(CCOCCOCCOCCOCCOCCOCCOCCOCCN[*:1])[*:2]].K.G.G.[dY].F.L.P.[dS].Q.F.[dA].[Tic].S}$$$$V2.0; N-terminus and C-terminus assumed),Emax,CMKLR1 [1],124%
palmitate-PEG8KGG-H2N-Y*-F-L-P-S*-Q-F-A*-Tic-S-COOH ({Palmitoyl-PEG8′}-KGG[dY]FLP[dS]QF[dA][Tic]S-OH) [oTTx-010],cell infiltration (flow cytometry of corneas),"[3]; day 3 post cautery, topical three times a day 10 μL for 3 days, compared to vehicle",decreases
same,inflammation in the eye,[3]; topical,decrease inflammation in the eye
same,corneal fluorescein staining scores,"DED mice; NEI scoring system: 0-15, compared with vehicle",lower
same,blink reflex as a sign of ocular irritation,DED mice; compared to vehicle treated group,significantly lower
same,T regulatory cells in the draining lymph node,"DED mice; flow cytometry gated on CD45+ CD3+ and CD4+, compared to vehicle",increased
same,percentage of activated immune cells (MHCII+) in the draining lymph node,"DED mice; flow cytometry, compared to vehicle controls",decreased
same,clinical symptoms and signs and immune tolerance in DED,DED mice; topical,decrease clinical symptoms and signs and improve immune tolerance
CC/C=C\C/C=C\C/C=C\CCCCCCCC(=O)NCCOCCOCCOCCOCCOCCOCCOCCOCCC(=O)N[C@@H](CCCCN)C(=O)NCC(=O)NCC(=O)N[C@H](Cc1ccc(O)cc1)C(=O)N[C@@H](Cc1ccccc1)C(=O)N[C@@H](CC(C)C)C(=O)N1CCC[C@H]1C(=O)N[C@H](CO)C(=O)N[C@@H](CCC(N)=O)C(=O)N[C@@H](Cc1ccccc1)C(=O)N[C@H](C)C(=O)N1Cc2ccccc2C[C@H]1C(=O)N[C@@H](CO)C(=O)O [C18:3] (HELM PEPTIDE1{[CC/C=C\C/C=C\C/C=C\CCCCCCCC(=O)[*:2]].[O=C(CCOCCOCCOCCOCCOCCOCCOCCOCCN[*:1])[*:2]].K.G.G.[dY].F.L.P.[dS].Q.F.[dA].[Tic].S}$$$$V2.0; N-terminus and C-terminus assumed),Emax,CMKLR1 [1],110%
same,activity after washing in the presence of BSA,"CMKLR1 [2]; with BSA, FIGS. 8C-8D",further reduced
CCCC(=O)NCCOCCOCCOCCOCCOCCOCCOCCOCCC(=O)N[C@@H](CCCCN)C(=O)NCC(=O)NCC(=O)N[C@H](Cc1ccc(O)cc1)C(=O)N[C@@H](Cc1ccccc1)C(=O)N[C@@H](CC(C)C)C(=O)N1CCC[C@H]1C(=O)N[C@H](CO)C(=O)N[C@@H](CCC(N)=O)C(=O)N[C@@H](Cc1ccccc1)C(=O)N[C@H](C)C(=O)N1Cc2ccccc2C[C@H]1C(=O)N[C@@H](CO)C(=O)O [C4] (HELM PEPTIDE1{[CCCC(=O)[*:2]].[O=C(CCOCCOCCOCCOCCOCCOCCOCCOCCN[*:1])[*:2]].K.G.G.[dY].F.L.P.[dS].Q.F.[dA].[Tic].S}$$$$V2.0; N-terminus and C-terminus assumed),Emax,CMKLR1 [1],89.7%
"CC[C@@H](O)/C=C/C=C\C[C@@H](O)/C=C/C=C/C=C\[C@@H](O)CCCC(=O)O [Resolvin E1, reference compound]",effect on neuropathic pain,[4],abrogate neuropathic pain
same,time after compound administration over which mechanical hypersensitivity is blocked / efficacy kept,[4],≤ 3 h
CCCCCCCCCCCCCCCC(=O)NCCOCCOCCOCCOCCOCCOCCOCCOCCC(=O)N[C@@H](CCCCN)C(=O)NCC(=O)NCC(=O)N[C@H](Cc1ccc(O)cc1)C(=O)N[C@@H](Cc1ccccc1)C(=O)N[C@@H](CC(C)C)C(=O)N1CCC[C@H]1C(=O)N[C@H](CO)C(=O)N[C@@H](CCC(N)=O)C(=O)N[C@@H](Cc1ccccc1)C(=O)N[C@H](C)C(=O)N1Cc2ccccc2C[C@H]1C(=O)N[C@@H](CO)C(=O)O [C16] (HELM PEPTIDE1{[CCCCCCCCCCCCCCCC(=O)[*:2]].[O=C(CCOCCOCCOCCOCCOCCOCCOCCOCCN[*:1])[*:2]].K.G.G.[dY].F.L.P.[dS].Q.F.[dA].[Tic].S}$$$$V2.0; N-terminus and C-terminus assumed),Emax,CMKLR1 [1],165%
same,effect on neuropathic pain,[4]; listed as C16-stable Chem9,abrogate neuropathic pain
same,effect on neuropathic pain,[4]; listed as palm sC9,alleviated neuropathic pain
same,time after compound administration over which mechanical hypersensitivity is blocked / efficacy kept,[4],more than 24 hours
same,potency and duration of activity (anchors to the cell membrane),CMKLR1 [2]; previously identified analog,high potency and long-term activity
same,wash resistance (an index of membrane adherence) in the presence of BSA,"CMKLR1 [2]; with BSA, FIGS. 8A-8B",decreased
CCCCCCCCCC(=O)NCCOCCOCCOCCOCCOCCOCCOCCOCCC(=O)N[C@@H](CCCCN)C(=O)NCC(=O)NCC(=O)N[C@H](Cc1ccc(O)cc1)C(=O)N[C@@H](Cc1ccccc1)C(=O)N[C@@H](CC(C)C)C(=O)N1CCC[C@H]1C(=O)N[C@H](CO)C(=O)N[C@@H](CCC(N)=O)C(=O)N[C@@H](Cc1ccccc1)C(=O)N[C@H](C)C(=O)N1Cc2ccccc2C[C@H]1C(=O)N[C@@H](CO)C(=O)O [C10] (HELM PEPTIDE1{[CCCCCCCCCC(=O)[*:2]].[O=C(CCOCCOCCOCCOCCOCCOCCOCCOCCN[*:1])[*:2]].K.G.G.[dY].F.L.P.[dS].Q.F.[dA].[Tic].S}$$$$V2.0; N-terminus and C-terminus assumed),Emax,CMKLR1 [1],98.3%
